From ChEMBL document CHEMBL5113462, “Synthesis and evaluation of inhibitors of Mycobacterium tuberculosis UGM using bioisosteric replacement” (Bioorg Med Chem, 2022)

The compounds below were run on Mycobacterium tuberculosis variant bovis (assay: Antimycobacterial activity against Mycobacterium tuberculosis variant bovis BCG for 7 days by resazurin-based microdilution assay). Settings: 168 h, time 7 day.
Type: functional
O=C(/C=C/c1ccccc1)N[C@@H](Cc1ccccc1)C(=O)O was tested, and the MIC was > 400 µg/mL.
O=C(/C=C/c1ccccc1)N[C@@H](Cc1ccc(I)cc1)C(=O)O gave an MIC of 237 µM.
With O=C(/C=C/c1ccccc1)N[C@@H](Cc1ccc([N+](=O)[O-])cc1)C(=O)O the MIC was 1270 µM.
Compound O=C(/C=C/c1ccccc1)N[C@@H](Cc1ccc(Cl)cc1)C(=O)O has an MIC of 606 µM.
O=C(/C=C/c1ccccc1)N[C@@H](Cc1ccc(Br)cc1)C(=O)O was tested, and the MIC was 1070 µM.
For CC[C@@H](CO)NCCN[C@@H](CC)CO [ETHAMBUTOL], the MIC was 4.9 µM.
